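1) Cells in 96-well plates. 2) Compound, 48 h, 5 concentrations. 3) Linear interpolation between surrounding doses. 4) Unreached endpoint = highest concentration. GI50 = concentration required for 50% inhibition of growth. TGI marks complete inhibition of growth.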
What was measured:
Assay in all cases: DTP human tumour cell line panel, 48 h
[1] = test system: OVCAR-5 ovarian
[2] = test system: EKVX NSCLC
[3] = test system: LOX IMVI melanoma
[4] = test system: HCC-2998 colon
[5] = test system: SK-MEL-28 melanoma
[6] = test system: MOLT-4 leukemia
[7] = test system: OVCAR-3 ovarian
[8] = test system: SK-MEL-2 melanoma
[9] = test system: SNB-75 CNS
[10] = test system: SF-539 CNS

SMILES	TGI [1]	TGI [2]	TGI [3]	TGI [4]	TGI [5]	TGI [6]	TGI [7]	TGI [8]	TGI [9]	TGI [10]	GI50 [1]	GI50 [2]	GI50 [3]	GI50 [4]	GI50 [5]	GI50 [6]	GI50 [9]	GI50 [7]	GI50 [8]	GI50 [10]
O=C(O)c1cc2ccccc2c(Cc2c(O)c(C(=O)O)cc3ccccc23)c1O	> 100 µM	> 100 µM	> 100 µM	> 100 µM	> 100 µM	> 100 µM	> 100 µM	> 100 µM												
O=C(Nc1ccccc1)c1cc2ccccc2c(N=Nc2cccc([N+](=O)[O-])c2)c1O	> 100 µM	> 100 µM		> 100 µM	> 100 µM	> 100 µM	> 100 µM	> 100 µM	> 100 µM	> 100 µM										
COc1cccc(N/C(C)=C2/CCOC2=O)c1	> 10 µM	> 10 µM	> 10 µM	> 10 µM	> 10 µM	> 10 µM	> 10 µM	> 10 µM	> 10 µM	> 10 µM										
C=C1CC[C@@]2(C)[C@@H]([C@@H]1C)[C@H]1CC[C@@H]3[C@@]4(C)CC[C@H](O)C(C)(C)[C@@H]4CC[C@@]3(C)[C@]1(C)C[C@@H]2O	17.7 µM	7.22 µM	3.47 µM		20.3 µM	> 100 µM	16.1 µM	12.7 µM		6.29 µM										
O=C([CH-]C(=O)c1ccccc1)c1ccccc1.[C-]#[O+].[C-]#[O+].[Ir]	> 100 µM	> 100 µM	> 100 µM	> 100 µM	> 100 µM	> 100 µM	> 100 µM	> 100 µM	> 100 µM	> 100 µM	> 100 µM	> 100 µM	46.5 µM	> 100 µM	87 µM	56.7 µM	45.6 µM	> 100 µM	> 100 µM	99.4 µM
CC1(CO)C(O)CCC2(C)C1CCC1CC3CC12CCC3(O)CO (centres undefined)	> 100 µM	> 100 µM	> 100 µM	> 100 µM	> 100 µM	> 100 µM	> 100 µM	> 100 µM	> 100 µM	> 44.5 µM										
COc1ccc(CN(CCN(C)C)c2ccccn2)cc1 (tested in a mixture with another compound)	> 100 µM				> 100 µM	> 100 µM	> 100 µM	> 100 µM	> 100 µM	> 100 µM										
Cc1cc(N(CCC#N)S(=O)(=O)c2ccccc2)ccc1C=Nc1cccc(C(=O)O)c1	> 100 µM	> 100 µM		> 100 µM	> 100 µM	> 100 µM	> 100 µM	> 100 µM	> 100 µM	> 100 µM										
C1=N[C@]23C(=N[C@H](N=C2NCc2ccco2)[C@]24N=CNC2=N[C@H]3N=C4NCc2ccco2)N1	> 100 µM	> 100 µM	> 100 µM	> 100 µM	> 100 µM	> 100 µM	> 100 µM	> 100 µM	> 100 µM	> 100 µM	> 100 µM	89.5 µM	> 100 µM	> 100 µM	> 100 µM	> 100 µM	67.1 µM	> 100 µM	> 100 µM	> 100 µM
O=C(NN1C(=O)C(Cl)C1c1cccc(O)c1)c1ccccc1O (centres undefined)			> 100 µM	> 100 µM	> 100 µM	> 100 µM	> 100 µM	> 100 µM	> 100 µM	> 100 µM										

Source: PubChem BioAssay (NCI)
